Measurements as given in patent publication US20260248809A1, “ESTRADIOL PRODRUGS AND METHODS OF USE THEREOF” (UNIVERSITY OF MARYLAND, BALTIMORE, priority 2022, published 2026).

Tests used:
Format in all cases: in vivo, mouse
[1] = test system: mice; test: Acoustic startle response after traumatic foot shock stress; details: acute foot shock stress, 10 mm silastic implant
Description: Determine the role of E2 in traumatic stress-induced changes in startle response in males and females. Heightened startle reactivity is a DSM diagnostic criteria for PTSD. Individuals suffering from PTSD frequently report subjective elevations in startle response and objective studies have described increased startle reactivity in individuals with PTSD. Moreover, physiological startle response is correlated with the severity of self-reported hyperarousal symptom domains and attenuated by interventions that improve PTSD symptoms. In rodents, like humans, the startle response can be elicited by acoustic stimuli (acoustic startle response, ASR) and involves eyelid closure and skeletal muscle contractions. While ASR is frequently assessed via the eye blink reflex in humans, it can be accurately assayed via whole-body movements in rodents. Importantly, elevated ASR has been reported in rodents following traumatic stress, including electrical shock and social defeat stress. ASR is utilized as a measure of hyperarousal in mice following traumatic stress. Similar to previously described methods, ASR is assessed following acute foot shock stress. Baseline ASR is assessed over 10 startle stimuli (110 dB, pseudo-randomized average inter-stimulus interval of 30 sec). […] Changes in ASR are measured 24 hours after shock using the same startle protocol. […]

[2] = Body, testis and seminal vesicle weights after hormonal treatments
Protocol: (§1) For the chronic administration paradigms, silastic tubes (1.02 mm inner diameter×2.16 mm outer diameter) were filled with testosterone (10 mm) or 17β-Estradiol (E2; 1,3 and 10 mm; Sigma-Aldrich, St. Louis, MO, USA). Silastic implants were primed in 0.9% saline at 37° C. overnight prior to their subcutaneous use. Letrozole (1 mg/kg/day; Sigma-Aldrich, St. Louis, MO, USA) was dissolved in propylene glycol (MP Biomedicals, Santa Ana, CA, USA) and administered through ALZET minipumps (Model 1002, 0.25 μl/hour, 14 days; Cupertino, CA, USA). DHED (synthesized using previously described methods) was dissolved in 0.9% saline and administered through ALZET minipumps (Model 1002, 0.25 μl/hour, 14 days; Cupertino, CA, USA) at a dose of […]. Flutamide was administered through 1.5 mg slow-release subcutaneous pellets (Innovative Research of America, Sarasota, FL, USA). For acute administration, 17β-Estradiol (E2; 10 and […]) was dissolved in sesame oil (4 ml/kg, s.c.; Sigma-Aldrich, St. Louis, MO, USA).
Subcutaneous implantations were performed during the same time as the orchiectomies. The surgical area was thoroughly cleaned with Betadine solution (10% povidone-iodine surgical scrub) followed by 70% ethanol. A small, approximately 1-cm incision was made between the scapulae using a pair of small sterile surgical scissors. Hemostats were then inserted and spread laterally to the incision to create a cavity in the subcutaneous space in which ALZET mini-osmotic pumps or silastic implants were inserted for continuous drug/vehicle delivery. The skin was closed with suturing.

[3] = test system: male mice; test: Subthreshold social defeat stress (SSDS) followed by social interaction test; details: for stress-induced social interaction deficits: chronic treatment (silastic implant or minipump), orchiectomized male mice + SSDS; for social interaction (sociability) deficits: orchiectomized male mice
Protocol: Subthreshold social defeat stress: Retired CD1 breeders are singly housed and used as aggressors. Experimental mice are introduced to the home cage of an aggressor for 2 min to initiate the physical attack phase. Afterward, mice are transferred and housed on the opposite side of the aggressor, in the same cage separated by a perforated Plexiglass divider for 15 mins in order to maintain sensory contact. This process is repeated 3 times over a period of ~50 min.
(§2) Social Interaction: Mice are placed in a rectangular box (40 cm length×30 cm width×35 cm height; Stoelting, IL) divided into three compartments (two equal-sized end-chambers and a middle chamber) for five minute habituation phase (10-15 lux). After the habituation phase, two small wire cages are introduced into the two end chambers, one containing an unfamiliar, non-aggressive CD1 mouse and the other remaining empty. The amount of time mice spent sniffing each cage during the five-min test is assessed using CleverSys tracking software (CleverSys, Inc, Reston VA, USA).
as §1
Retired CD1 breeders were singly housed and used as aggressors. Two days prior to the start of the experiment, experimental mice were also singly housed. The stress procedure was performed using previously described methods. Briefly, experimental mice were introduced to the home cage of an aggressor for 2 min to initiate the physical attack phase. Afterward, mice were transferred and housed on the opposite side of the aggressor, in the same cage separated by a perforated Plexiglass divider for 15 mins in order to maintain sensory contact. This process was repeated 3 times over a period of ~50 min. Following the completion of the third cycle, mice were placed back in their home cages.
Acute E2 was administered 45 min prior to the initiation of stress or 5 min after the completion of stress. For the optogenetic stimulation, ChR2 and YFP-injected mice received a 4 Hz, 5 ms pulse width, 10-15 mW 470 nm light stimulation for 45 min prior to the initiation of stress. This stimulation paradigm was shown previously to increase synaptic transmission. The optogenetic set up consisted of an LED driver paired with a fiber-coupled LED light source attached to a bifurcated optogenetic path cable (400 μm, 0.49 NA; ThorLabs, Newton NJ, USA).
as §2, with “Social interaction was performed 24 hours following subthreshold social defeat or inescapable foot-shock stress. For the habituation phase, mice were” for “Social Interaction: Mice are”, “five minutes” for “five minute habituation phase”, “cages were” for “cages are”, “test was” for “test is”

Row | Structure (SMILES) | increased startle after stress+orchiectomy [1] | body weight ([2]; chronic treatment) | seminal vesicle weight ([2]; chronic treatment) | relative seminal vesicle weights ([2]; s.c. treatment, compared to vehicle (saline) control) | stress-induced social interaction deficits [3] | social interaction (sociability) deficits ([3]; acute administration 5 min after SSDS) | social interaction (sociability) deficits ([3]; acute s.c. administration 45 min prior to SSDS) | stress-susceptible phenotype induced by low testosterone ([3]; orchiectomized mice on low dose testosterone + SSDS) | testis weight ([2]; chronic treatment) | maladaptive behaviors (social interaction, anhedonia) ([3]; chronic treatment, gonadally intact or non-stressed mice)
1 | C[C@]12CC[C@@H]3c4ccc(O)cc4CC[C@H]3[C@@H]1CC[C@@H]2O [Example E2, 17β-Estradiol] | recoverable | increased body weight | increased | significant increase | reversed the stress-induced social avoidance | reversed only the anhedonia phenotype | prevented the development of both sociability deficits | completely recover the phenotype |  | 
2 | C[C@]12CC[C@H]3[C@@H](CCC4=CC(=O)CC[C@@]43C)[C@@H]1CC[C@@H]2O [Testosterone, testosterone] | recoverable | increased body weight | reversed |  | reversed the observed maladaptive behaviors |  |  |  | decreased testis weight | no effect
